# Laboratory results taken from PMC5526551, “New hydrazonoindolin-2-ones: Synthesis, exploration of the possible anti-proliferative mechanism of action and encapsulation into PLGA microspheres” (PLoS ONE, 2017).
# System: Caspase 3/7 activity in A549 cells
# Assay: Apoptosis and caspase 3/7 activity (CaspaseGlo 3/7 luminescence)
# Format: cell-based, human
# Conditions: for Increase in caspase 3/7 activity: A549, 10 μM
# Protocol: Compound 7e was analyzed for apoptosis inducing activity in cancer cells. These studies were carried out using cells derived from human lung (A549).
# Fig 4 A-549 human lung cancer cells were treated with 3.3 and 10 μM 7e over a time course from 2–48 h. Caspase 3/7 activity was measured by a luminescence-based homogenous assay.
# A549 cells were harvested from a 90% confluent 10 cm dish and diluted in growth medium. An appropriate concentration of cells were prepared to add 1,250 cells in a volume of 25 µL per well in tissue culture treated Corning 384-well microplates, then incubated overnight at 37°C. A single cluster of four wells containing no cells was included to serve as a background (no cell) control. Compound 7e was diluted in DMSO to concentrations […].
# Concentrated dosing solutions of twice the final concentration were prepared by dilution of the DMSO stocks 1:500 in growth media. Three-fold dilutions of each dosing medium was then prepared in medium containing 0.2% DMSO to maintain a constant concentration of vehicle throughout the concentration range of the compound. Each of these was added in equal volume (25 µL) to four wells on each cell assay plate, along with the vehicle control. Cells were incubated with the compounds for a further 48 h. After 24 h, a separate group of cells was treated identically for 24 h. Likewise, groups of cells were treated for durations of 16, 8, 4 and 2 h.
# At the end of the treatment period, assay plates were allowed to cool to RT for 10 min prior to addition of 25 µL per well Promega CaspaseGlo 3/7 reagent, followed by an additional 10 min incubation at RT. The resulting luminescence was quantitated using a Molecular Devices Spectramax Paradigm.
# The average mean value of the background “no cell” control sample wells were subtracted from all vehicle and test compound wells.Fold-change in caspase activity was then calculated by dividing the mean sample value for each treatment time point by the mean vehicle value for the corresponding time.
structure (smiles),measurement,setting,value
"O=C1Nc2ccc(Br)cc2C1=NN=C1C(=O)N(Cc2ccccc2)c2ccccc21 [Compound 7e, 1-Benzyl-3-((5-bromo-2-oxoindolin-3-ylidene)hydrazono)indolin-2-one]",Increase in caspase 3/7 activity,4 h,2.4 fold
same,Increase in caspase 3/7 activity,8 h,1.85 fold
same,Effect on caspase 3/7 activity,"A549, lower tested concentration (3.3 μM)",no effect
